{
  "source": "patent US10010581B2",
  "about": "“Syndecan peptides and polypeptides and uses thereof” (Wisconsin Alumni Research Foundation, priority 2012, dated 2018)",
  "experiment_in_all_cases": "total cell number, CellTiterGLO assay",
  "key": {"MDA-MB-468 cells": {"tested_on": "MDA-MB-468 cells", "format": "cell-based, human", "settings": "4 or 7 days", "procedure": "(§1) FIGS. 11A-F. SSTN treatment of normal (nontransformed) epithelial cells versus carcinoma (transformed) cells. Cells are plated for one day, then treated with either 3-30 μM […] (SSTN-I), 3-30 μM […] (SSTN-E), 3-30 μM SSTNHER2 (SSTN-H) or combinations of the three peptides, each at 10 μM to test their additive effect. […] The treatment times are chosen to reflect only modest effects of the peptides used singly, so that the more pronounced effect of peptides used in combination can still be observed. Treatment for longer times leads to significant cell death observed even with single peptides alone. (FIG. 11A) HaCat human keratinocytes, an example of a normal stratified epithelium, (FIG. 11B) UM-SCC47 cells, a squamous cell carcinoma derived from the tongue of a patient (a stratrified epithelium), (FIG. 11C) SCC25 cells, another squamous cell carcinoma from the tongue of a patient (FIG. 11D) MCF10A cells, a normal human breast epithelium, (FIG. 11E) MDA-MB-468 cells, a triple-negative (TN) breast carcinoma, and (FIG. 11F) SKBr3 cells, a HER2+ human breast carcinoma. Note that the “triple-negative” designation of the MDA-MB-468 carcinoma means the cells are negative for progesterone receptor, estrogen receptor and the HER2 kinase. Thus, they would not be expected to rely on HER2. Indeed, these cells are not affected by SSTNHER2, either alone or when combined with the other peptides. […] Nonetheless, the other three carcinomas are inhibited by SSTNHER2, and this is enhanced when SSTNHER2 is combined with the other SSTN peptides, leading to obvious cell death (e.g., the number of cells at the end of the experiment are less than at the beginning).\n(§2) Cells (5×10^4/well in a 24-well plate) were treated with activated TAT-peptide ([…]; (SEQ ID NO:18)), inactivated TAT-peptide ([…]; (SEQ ID NO:19)) or GST fusion protein (GST, GST-S1ED or GST-S4ED). Cells death was observed by trypan blue staining or Cell Tilter-GLO Cell Viability Assay (Promega)."}, "SCC25 cells": {"tested_on": "SCC25 cells", "format": "cell-based, human", "settings": "4 or 7 days", "procedure": "as §1, §2"}, "SKBr3 cells": {"tested_on": "SKBr3 cells", "format": "cell-based, human", "settings": "4 or 7 days", "procedure": "as §1, §2"}, "UM-SCC47 cells": {"tested_on": "UM-SCC47 cells", "format": "cell-based, human", "settings": "4 or 7 days", "procedure": "as §1, §2"}, "MCF10A cells": {"tested_on": "MCF10A cells", "format": "cell-based, human", "settings": "single peptide, concentrations as high as 30 μM, 4 or 7 days", "procedure": "as §1, §2"}, "[1]": {"tested_on": "HaCat human keratinocytes", "format": "cell-based", "settings": "single peptide, concentrations as high as 30 μM, 4 or 7 days", "procedure": "FIGS. 11A-F. SSTN treatment of normal (nontransformed) epithelial cells versus carcinoma (transformed) cells. Cells are plated for one day, then treated with either 3-30 μM […] (SSTN-I), 3-30 μM […] (SSTN-E), 3-30 μM SSTNHER2 (SSTN-H) or combinations of the three peptides, each at 10 μM to test their additive effect. […] The treatment times are chosen to reflect only modest effects of the peptides used singly, so that the more pronounced effect of peptides used in combination can still be observed. Treatment for longer times leads to significant cell death observed even with single peptides alone. (FIG. 11A) HaCat human keratinocytes, an example of a normal stratified epithelium, (FIG. 11B) UM-SCC47 cells, a squamous cell carcinoma derived from the tongue of a patient (a stratrified epithelium), (FIG. 11C) SCC25 cells, another squamous cell carcinoma from the tongue of a patient (FIG. 11D) MCF10A cells, a normal human breast epithelium, (FIG. 11E) MDA-MB-468 cells, a triple-negative (TN) breast carcinoma, and (FIG. 11F) SKBr3 cells, a HER2+ human breast carcinoma. Note that the “triple-negative” designation of the MDA-MB-468 carcinoma means the cells are negative for progesterone receptor, estrogen receptor and the HER2 kinase. Thus, they would not be expected to rely on HER2. Indeed, these cells are not affected by SSTNHER2, either alone or when combined with the other peptides. […]"}},
  "data": [
    {"substance": "SSTNHER2: synthetic peptide of human Sdc1 ectodomain amino acids 210-240 (SEQ ID NO:3), inhibits Sdc1 coupling of HER2 to α6β4 integrin (DFTFETSGENTAVVAVEPDRRNQSPVDQGAT; listed as Homo sapiens)", "values": [
      {"measurement": "proliferation and survival", "setting": "MDA-MB-468 cells; MDA-MB-468 (triple-negative), single peptide 3-30 μM", "value": "no effect"},
      {"measurement": "total cell number, combination with the other SSTN peptides", "setting": "MDA-MB-468 cells; MDA-MB-468, each peptide at 10 μM", "value": "not affected"},
      {"measurement": "total cell number, combination with the other SSTN peptides", "setting": "SCC25 cells; each peptide at 10 μM", "value": "enhanced"},
      {"measurement": "proliferation and survival", "setting": "SCC25 cells; single peptide 3-30 μM", "value": "target the proliferation and survival"},
      {"measurement": "total cell number, combination with the other SSTN peptides", "setting": "SKBr3 cells; each peptide at 10 μM", "value": "enhanced"},
      {"measurement": "proliferation and survival", "setting": "SKBr3 cells; single peptide 3-30 μM", "value": "target the proliferation and survival"},
      {"measurement": "total cell number, combination with the other SSTN peptides", "setting": "UM-SCC47 cells; each peptide at 10 μM", "value": "enhanced"},
      {"measurement": "proliferation and survival", "setting": "UM-SCC47 cells; single peptide 3-30 μM", "value": "target the proliferation and survival"},
      {"measurement": "growth or survival", "setting": "MCF10A cells", "value": "no effect"},
      {"measurement": "growth or survival", "setting": "[1]", "value": "no effect"}
    ]}
  ]
}
